# How the values were obtained:
# [1] = Sequestration of L-lactate by D-lactic acid oligomers, tetrazolium indicator color test strips; settings: for Tetrazolium indicator (L-lactic acid): room temperature, 2 minutes; for sequestration of L-lactate in vitro: summary statement
# Procedure: Lactic acid concentration was measured by tetrazolium indicator color test strips (Accuvin, LLC, Napa, Calif.) from the reaction of L-lactic acid and […] in the presence of lactate dehydrogenase. Samples of D-lactic acid oligomers (n=2, n=3, n=4, n=5, and n=6) were weighed on truncated 100 microliter pipette tips. […] The reactions were carried out at room temperature for 2 minutes, then 20 microliters were applied to L-lactic acid test strips, and the results were read after 2 minutes.
# [2] = earlier work (Goldberg, Weinberg 2017); cited from earlier work
# HeLa cells = settings: earlier work (Goldberg, Weinberg 2016, 2017); cited from earlier work
# cultured leukemia cells = settings: earlier work (Goldberg, Weinberg 2016, 2017); cited from earlier work
# normal fibroblasts = settings: at a similar hydrogen ion concentration; cited from earlier work
# retinoblastoma cells = settings: earlier work (Goldberg, Weinberg 2016, 2017); cited from earlier work
# [3] = 5.0 mg oligomer in 40 microliters of 10 mM L-lactic acid
smiles,measurement,setting,value
"CC(O)C(=O)OC(C)C(=O)OC(C)C(=O)OC(C)C(=O)OC(C)C(=O)OC(C)C(=O)O [D-lactic acid n = 6, D-lactic acid hexamer]",Tetrazolium indicator (L-lactic acid),[1]; [3],greater than 400 mg/L
same,sequestration of L-lactate in vitro,[1],did not sequester L-lactate
"CC(O)C(=O)OC(C)C(=O)OC(C)C(=O)OC(C)C(=O)O [D-lactic acid n = 4, D-lactic acid tetramer]",Tetrazolium indicator (L-lactic acid),[1]; [3],greater than 400 mg/L
same,sequestration of L-lactate in vitro,[1],did not sequester L-lactate
C[C@@H](O)C(=O)O[C@H](C)C(=O)O [D-lactic acid dimer],Tetrazolium indicator (L-lactic acid),[1]; 0.5 mg oligomer in 40 microliters of 10 mM L-lactic acid,80 mg/L
same,Tetrazolium indicator (L-lactic acid),[1]; 1.0 mg oligomer in 40 microliters of 10 mM L-lactic acid,no color change
same,Tetrazolium indicator (L-lactic acid),"[1]; 5.0 mg oligomer in 40 microliters of 10 mM L-lactic acid, result in words",no color change
same,Tetrazolium indicator (L-lactic acid),[1]; 7.0 mg oligomer in 40 microliters of 10 mM L-lactic acid,no color change
same,sequestration of L-lactate,[2],“sequester or trap” L-lactate
same,killing of cultured HeLa cells,HeLa cells,kill
same,killing of cultured leukemia cells,cultured leukemia cells,kill
same,cytotoxicity to normal fibroblasts compared with L-lactic acid,normal fibroblasts,less cytotoxic than L-lactic
same,killing of cultured retinoblastoma cells,retinoblastoma cells,kill
"C[C@@H](O)C(=O)O[C@H](C)C(=O)O[C@H](C)C(=O)O [D-lactic acid n = 3, D-lactic acid trimer]",Tetrazolium indicator (L-lactic acid),[1]; [3],greater than 400 mg/L
same,sequestration of L-lactate in vitro,[1],did not sequester L-lactate
"CC(O)C(=O)OC(C)C(=O)OC(C)C(=O)OC(C)C(=O)OC(C)C(=O)O [D-lactic acid n = 5, D-lactic acid pentamer]",Tetrazolium indicator (L-lactic acid),[1]; [3],greater than 400 mg/L
same,sequestration of L-lactate in vitro,[1],did not sequester L-lactate
